Laboratory results published in patent publication US20210154280A1, “NEO-EPITOPE VACCINES AND METHODS OF TREATING CANCER” (Epivax Oncology, Inc., priority 2019, published 2021).

How the values were obtained:
CT26 tumor cells = experiment: CT26 tumor growth and survival after vaccination (Example 1); details: N=10 per group
Procedure: Mice were separated into three groups: 1) PBS control; 2) poly-ICLC (vehicle); 3) ANCER™-selected CT26 Neoantigen Peptides+poly-ICLC. • Group 1: PBS, sc injections at days 5, 8, 12, 15, 19, 22, and 26. • Group 2: poly-ICLC, 50 μg, sc injections at days 5, 8, 12, 15, 19, 22, and 26. • Group 3: 5 μg/ANCER™-selected CT26 Neoantigen Peptide (100 μg total ANCER™-selected CT26 Neoantigen Peptides)+50 μg poly-ICLC, sc injections at days 5, 8, 12, 15, 19, 22, and 26.
All mice (N=10 mice per group) were injected 3*10^5 CT26 tumor cells in 0% Matrigel at day 0. Mice were sacrificed once the tumor volume reached 2,000 mm^3 or at day 45, whichever came first.

[1] = system: CT26 murine colon tumor cells; experiment: Anti-tumor activity with or without poly-ICLC, CT26 murine tumor model (Example 13); type: in vivo, BALB/c mice; details: day 25 post-tumor implantation; relative to PBS or poly-ICLC alone; sc twice per week for three weeks
Procedure: The goal of this experiment was to determine the requirement for the inclusion of the adjuvant poly-ICLC in a peptide vaccine containing ANCER™ selected neoantigens. For this experiment, female BALB/c mice were implanted subcutaneously with 3×10^5 CT26 murine colon tumor cells. Tumor growth was monitored by caliper measurement and mice were sacrificed 45 days after tumor implantation or when tumor volumes reached 2000 mm^3, whichever came first.
Four vaccine groups were tested (n=10 mice/group): • Group 1=PBS only • Group 2=PBS with 50 μg poly-ICLC • Group 3=20 ANCER™ selected (uncapped) peptides with 50 μg poly-ICLC • Group 4=20 ANCER™ selected (uncapped) peptides only
Peptide vaccines were comprised of 20 different ANCER™ selected peptides at a concentration of 5 μg/peptide for a total dose of 100 μg peptide per immunization. Mice were immunized subcutaneously in the opposite flank from tumor implantation twice per week for three weeks, starting at day 4 post-tumor implantation.

## poly-ICLC
CT26 tumor cells
  mice that survived the 45 days of the experiment (in words): None
CT26 tumor cells; by day 28
  mice reaching a tumor volume of at least 2,000 mm^3 (endpoint): 60%
[1]
  control of tumor growth: no difference in tumor growth kinetics
